For 20 molecules, TGI and GI50 results are on record in PubChem BioAssay (NCI).

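Compound exposure: 48 hours, 5 concentrations, 96-well plates. Abbreviation: GI50, concentration required for 50% inhibition of growth. TGI marks complete inhibition of growth.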

Common to all, as to test: NCI tumour cell line growth inhibition, 48 h
Assay [1] relates to SNB-78 CNS.
In assay [2] the test system is HOP-18 NSCLC.
For assay [3], the system named is XF 498 CNS.
In assay [4] the test system is DMS 273 small cell lung.
The subject of assay [5] is DLD-1 colon.
The subject of assay [6] is LXFL 529 NSCLC.
For assay [7], the system named is M19-MEL melanoma.
Assay [8] relates to RXF-631 renal.
The subject of assay [9] is MDA-N.

Turning to `COc1c2c(cc3nc4ccccc4nc13)CCC(C(C)(C)O)C2` (configuration not stated), the TGI in assay [1], in [2], in assay [3], in assay [4], in [5] and in assay [6] was over 100 µM each time. In addition, the TGI in assay [7] is over 100 µM.
Take `COc1cc(OC(=O)c2c(O)cc(O)c(O)c2C)cc(C)c1C(=O)Oc1cc(C)c(C(=O)O)c(O)c1`: the TGI in [1], in [2], in assay [3], in [8], in [4] and in assay [5] was over 100 µM in each case. In addition, the TGI in assay [6] and in assay [7] was over 100 µM throughout.
As for `Nc1ccc(/C=C/c2ccnc3ccccc23)cc1`, the TGI was 48.9 µM in assay [4], over 100 µM in assay [5], 58.7 µM in assay [6] and 90 µM in [7].
In the case of `O=C(O)CC1OCC=C2CN3CCC45c6ccccc6NC4C1C2CC35` (configuration not stated), the TGI in [9] was over 100 µM.
Take `COc1ccc2c(c1)C=C([N+](=O)[O-])C(C1OC(C)(C)OC1C1COC(C)(C)O1)O2` (configuration not stated): the TGI in assay [1] was 11.8 µM; in assay [2] it was 42 µM; in assay [3] it was 22.9 µM; in [4], 9.22 µM; in [5] it was 3.15 µM; in assay [6], 13.8 µM. This molecule yielded a TGI in assay [7] of 3.31 µM.
On to `NC(CC(=O)OCc1ccccc1)C(=O)OCc1ccccc1` (configuration not stated), for which, in assay [9], the TGI is over 100 µM.
Same read-out and setting: then `CCc1[nH]c(=O)nc(N)c1-c1ccc(N2CCCCC2)c([N+](=O)[O-])c1`, with over 100 µM; and `CC12CCCC(O)C1CCC1=CC3(CCC12)SCCS3` (configuration not stated), with over 10 µM.
Regarding `CC(C)N(C(=O)C12CC3CC(CC(C3)C1)C2)C(C)C`, the TGI in assay [1], in assay [2], in assay [4], in [5], in assay [6] and in assay [7] was over 50 µM throughout.
`CC(=O)[CH-]C(=O)c1ccccc1.CC(=O)[CH-]C(=O)c1ccccc1.O=C([O-])c1ccc([O-])cc1.O=C([O-])c1ccc([O-])cc1.[Ti+4]`: the GI50 in assay [2] is 68.8 µM; in assay [5], over 100 µM; in assay [6], 31.1 µM. In addition, the TGI in [2], in assay [5] and in assay [6] was over 100 µM throughout.
For `C=CCCCCCCCCC(=O)NS(=O)(=O)c1ccccc1`, the TGI in assay [1], in assay [2], in assay [3], in assay [8], in [4] and in assay [5] was over 100 µM throughout. For the same molecule, the TGI in assay [6] and in [7] was over 100 µM in each case.
Regarding `N#Cc1nc(C2OC(COC(=O)c3ccccc3)C(OC(=O)c3ccccc3)C2OC(=O)c2ccccc2)oc1N` (configuration not stated), the TGI in assay [1], in assay [2], in assay [4], in assay [5] and in assay [7] was over 100 µM each time.
On to `COC(=O)c1cc(Br)c(Br)n1C`, for which the TGI in assay [1], in assay [2], in assay [3], in [8], in [4] and in assay [5] was over 100 µM in each case. Besides, the TGI in assay [6] and in [7] was over 100 µM in each case.
As for `N.N.N.N.N.O=C([O-])c1nn[n-]n1.[Cl-].[Co+3]`, the GI50 in assay [1], in assay [2], in assay [4], in [5] and in [6] was over 100 µM throughout. Also, the TGI in assay [1], in [2], in assay [4], in assay [5] and in assay [6] was over 100 µM throughout.
Consider `CC1=C(C)CC2(CCCCC2=O)S(=O)C1` (configuration not stated), for which the TGI in assay [1], in assay [2], in assay [3], in [4], in assay [5] and in assay [6] was over 100 µM each time. This molecule displayed a TGI in [7] of over 100 µM.
As for `Cc1ccc2nc3c(C(=O)NCCN(C)C)cccc3nc2c1`, the TGI in assay [1] was 41.1 µM; in [2], over 87.3 µM; in assay [4], over 100 µM; in assay [6], over 47.1 µM; in [7], 7.29 µM.
Regarding `Cc1ccc(N(C(=O)CC(=O)NN)C(=O)c2ccccc2Cl)cc1`, the TGI in assay [1], in assay [2], in assay [3], in [8], in [4] and in [5] was over 100 µM each time. Further, the TGI in assay [6] and in [7] was over 100 µM throughout.
As for `Cc1ccc(S(=O)(=O)n2c(-c3ccccc3)c(-c3ccccc3)c3ccccc32)cc1`, the TGI in assay [2], in assay [3], in [4], in [5], in [6] and in assay [7] was over 100 µM each time.
For the molecule `CC1=C2C(=O)O[C@@H](c3ccoc3)[C@]2(C)CCC1`, the TGI in assay [1], in [2], in [3], in assay [5], in assay [6] and in assay [7] was over 100 µM in each case.
Consider `CC(C)(C)OC(=O)Cc1ccc2c(ccn2Cc2ccccc2)c1`, for which the TGI in assay [1], in assay [2], in assay [8], in assay [4], in assay [5] and in assay [6] was over 100 µM each time. In assay [7], the TGI is over 100 µM.
